# Measurements as given in patent US8440592B2, “Use of abscisic acid combinations for thinning” (Valent BioSciences Corporation, priority 2007, dated 2013).
# What was measured:
# [1] = system: Pioneer McIntosh apple trees; assay: Example 4: fruit set of Pioneer McIntosh apple trees after BA and ABA sprays; type: in vivo; settings: 75 ppm BA whole-tree spray, 300 ppm ABA on tagged limbs, or sequential BA then ABA, applied at 9 mm fruit size; for % Fruit Set: counted after June drop
# Method: Pioneer McIntosh apple trees were selected for uniformity of bloom and 2 limbs per tree were tagged and all blossom clusters on the tagged limbs were counted. Treatments were applied to four replicate trees per treatment when the average fruit size was 9 mm. BA at 75 ppm was applied as a dilute solution sprayed on whole trees to the drip point on two of the four trees in each replication. […] The solution was shaken and then allowed to sit for 5 minutes. […] The fourth tree in each block received no spray and served as the control. At the end of the June drop period in July, all fruit on the tagged limbs was counted and recorded.
# [2] = system: European seedless cucumber (var. Flamingo) plants; assay: Example 6: foliar spray with ABA, abortion of cucumber fruits; type: in vivo; settings: ABA 100 ppm sprayed to drip at 20 node growth stage
# Method: European seedless cucumber (var. Flamingo) plants were grown in a greenhouse.
# Cabernet Franc grapes [3] = assay: Example 2: dipping Cabernet Franc flower clusters at full bloom, berry number and cluster compactness; type: in vivo, grape; settings: clusters dipped at full bloom; 300 ppm ABA, 10 ppm GA3 or 300 ppm ABA mixed with 10 ppm GA3; n = 10 clusters
# Method: One cluster was tagged and treated with each of the treatments on each of 10 vines. The clusters were harvested at commercial maturity and berry number and cluster compactness were evaluated.
# Cabernet Franc grapes [4] = assay: Example 1: dipping Cabernet Franc flower clusters at full bloom, berry number and cluster compactness; type: in vivo, grape; settings: clusters dipped at full bloom; 10 ppm GA3, 300 ppm ABA or both together; harvested at commercial maturity; n = 10 clusters
# Method: One cluster was tagged and treated with each of the treatments on each of 10 vines. The clusters were harvested at commercial maturity. Cluster compactness was assessed by counting the number of berries per cluster and measuring the total rachis length of each cluster and then calculating the number of berries per cm of rachis.
# Thompson Seedless grape = assay: Example 3: spraying Thompson Seedless grape vines, bunch compactness at harvest; type: in vivo; settings: sprayed twice, at 70% bloom and 100% bloom
# Method: The applications were made twice, once at 70% bloom and once at 100% bloom. Grape bunch compactness was rated at harvest and the average bunch mass and the average number of berries per gram of rachis was determined.
# Empire apple trees = assay: Example 5: crop load and fruit size of Empire apple trees; type: in vivo; settings: 100 ppm BA or mixture of 100 ppm BA and 1000 ppm ABA; sprayed at 8 mm fruit size; harvested at maturity
# Method: Empire apple trees were selected for tree size and uniformity of bloom. Treatments were applied to five replicate trees per treatment when the average fruit size was 8 mm. BA at 100 ppm was applied as a dilute solution sprayed on whole trees to the drip point on five trees. […] Five trees were left untreated to act as control trees. At the end the season when the fruit were mature all the fruit were harvested and the number of fruit per tree and the average fruit size were determined.
Compound,Average Fruit Weight [1],% Fruit Set [1],Rate of fruit abortion compared to the control plants [2],"Percentage of basal 18 cucumber fruits per plant that aborted ([2]; greenhouse, n = 5 replicate plants)",Number of berries per cluster (Cabernet Franc grapes [3]),Number of berries per cm rachis (Cabernet Franc grapes [3]),Number of berries per cluster (Cabernet Franc grapes [4]),Number of berries per cm rachis (Cabernet Franc grapes [4]),"Bunch Compactness (Thompson Seedless grape; rating scale 1 = very loose bunch, 5 = very tight bunch, rated at harvest)",Average bunch mass (Thompson Seedless grape; at harvest),Average number of berries per gram of rachis (Thompson Seedless grape; at harvest),Average Fruit Weight (Empire apple trees),Number of Fruit per Tree (Empire apple trees)
"(S)-5-(1-hydroxy-2,6,6,-trimethyl-4-oxo-2-cyclohexen-1-yl)-3-methyl-(2Z,4E)-pentadienoic acid [ABA]",146 g,25%,twice,68%,54.3,2.0,53.0,1.87,,,,,
gibberellic acid [GA3],,,,,37.6,1.35,34.8,1.33,2.3,830 g,5.7,,
"c1ccc(CNc2ncnc3nc[nH]c23)cc1 [BA, benzyladenine]",190 g,75%,,,,,,,,,,123 g,137
